In PubChem BioAssay (NCI):
Where “and” joins values, the source holds several entries; their conditions need not be identical. Equal values may be shown once.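 Following 48 hours of exposure in 96-well plates, responses at five concentrations were used to interpolate endpoints linearly. Abbreviation: GI50, concentration required for 50% inhibition of growth. TGI denotes the concentration required for complete inhibition of growth.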

Experiments:
Experiment in all cases: NCI tumour cell line growth inhibition, 48 h
[1] = system: LXFL 529 NSCLC
[2] = system: M19-MEL melanoma
[3] = system: DMS 114 small cell lung
[4] = system: SN12K1 renal
[5] = system: P388/ADR leukemia
[6] = system: KM20L2 colon
[7] = system: SNB-78 CNS
[8] = system: P388 leukemia
[9] = system: RXF-631 renal

Compound	TGI [1]	TGI [2]	TGI [3]	TGI [4] [µM]	TGI [5] [µM]	TGI [6]	TGI [7]	TGI [8] [µM]	TGI [9] [µM]	GI50 [2]	GI50 [3]
COc1cccc(NC(=S)Nn2c(C)nc3ccccc3c2=O)c1	> 100 µM	> 100 µM	> 100 µM								
CCC1=CC2CN3CCc4c([nH]c5ccccc45)C(C(=O)OC)(C2)C13 (stereo not drawn)		85.8 µM	85.1 µM	39.6	131	19.3 µM	167 µM	93.1			
CCCCc1c2c(nc3c1CCCC3O)/C(=C/c1ccccc1)CCC2 (stereo not drawn)	> 100 µM	57.1 µM	53.1 µM			75.1 µM	> 100 µM				
CC1=C2C(=O)[C@H]3[C@@H](CC=C4C[C@@H](O)CC[C@@]43C)[C@@H]2CC[C@]12O[C@@H]1C[C@H](C)CN[C@H]1[C@H]2C	33.7 µM	85.3 µM	41.5 µM			93.2 µM	39.8 µM		50		
N#Cc1c(-c2ccco2)cc(-c2ccc(NCc3nc4ccccc4[nH]3)cc2)nc1N	42 µM	63.4 µM									
CCOC(=O)c1c(C)c2c(n1C)CCc1cn[nH]c1-2		> 100 µM	> 100 µM	> 100	> 31.6	> 100 µM	> 100 µM	> 100			
COc1nc(SC)nc2c1cnn2C1OC(C(O)CO)C(OC)C1O (stereo not drawn)		> 100 µM	> 100 µM	> 84	> 100	> 100 µM	> 100 µM	> 100			
COC(OC)c1cccc2c1C(=O)CCC1(O)c3ccccc3C1C2 (stereo not drawn)	> 100 µM	> 100 µM	> 100 µM				> 100 µM				
CCCCC(C)C1CCC2(C)C=CC(=O)C(C)=C2C1O (stereo not drawn)		> 100 µM	> 100 µM	> 100	> 100	> 100 µM	> 100 µM	> 100			
Nc1nc(SCCNC(=O)CCc2ccc(O)cc2)nc2c1ncn2C1OC(CO)C(O)C1O (stereo not drawn)		> 203 µM	> 203 µM			> 203 µM	> 203 µM				
COc1cc(C2C(Cl)C(=O)N2NC(=O)c2ccccc2O)ccc1O (stereo not drawn)	> 100 µM	> 100 µM	> 100 µM				> 100 µM				
COc1cc2c(c(C)c1O)[C@H]1COc3ccccc3[C@H]1O2	31.1 µM	25 µM	47.6 µM			63.9 µM	80.7 µM		29.8		
CCCn1c(SCC)c2ccccc2c1-c1nc(F)nc(F)n1	> 100 µM	> 100 µM	> 100 µM			> 100 µM	> 100 µM		> 100		
O=C1C(CN2CCCCC2)CCCC1CN1CCCCC1 (stereo not drawn)	29.3 µM and 28.9 µM	> 57.1 µM and 36.7 µM	18.7 µM and 79.4 µM			17.8 µM and 22.8 µM	47.6 µM and 44.8 µM			> 43 µM and 19.8 µM	7.38 µM and 27.4 µM
COC(=O)C(CCCC1(c2ccccc2)OCCO1)C(C)=O (stereo not drawn)	> 100 µM	> 100 µM				> 100 µM	> 100 µM		> 100		
COC1=CC(=O)[C@H]2[C@H](C)C(c3ccccc3)[C@@]2(C)C1=O (stereo partly drawn)	> 100 µM	> 100 µM					> 100 µM				
